Experiments:
[1] = target: T1, dopamine D2S receptor (Homo sapiens, UniProt P14416); assay: Dopamine D2S receptor radioligand binding (HEK-293); conditions: 10 μM
T1 construct: host or cells: HEK-293 cells (membrane homogenates)
Procedure: (§1) α1 Adrenergic and Dopamine D2 Receptors. Methods: Binding and functional assays for α1 adrenergic and dopamine D2 receptors were performed by Eurofins Cerep according to their methods.
Dopamine D2 Receptor. Binding at 10 μM. The binding assay evaluated the affinity of test articles for the dopamine D2 receptor in transfected human embryonic kidney (HEK)-293 cells. For determining the binding in the D2S receptor assay, test article was incubated with 0.3 nM [^3H] methylspiperone or 1 nM [^3H] 7-hydroxy-2-N,N-dipropylaminotetralin (7-OH-DPAT). [3H] Methylspiperone at 0.3 nM also was used as control ligand in the D2L binding assay. Cell membrane homogenates were incubated in duplicate at room temperature for 60 minutes with ligand in the absence or presence of test articles at 10 μM. After the incubation period, samples were filtered through glass fiber filters, the filters dried and then counted for radioactivity using a scintillation counter. Results are expressed as mean percent inhibition of control radioligand binding.
Binding IC50. To determine the binding IC50 in the D2 receptor assays, HEK-293 were tested as described above but with varying concentrations of test article. Compound A was tested at 0.01-30 μM in the D2S radioligand binding assay. […] Compound 1 was assayed at 0.03-100 μM in both the D2S and D2L assays, while Compound 2 was tested at 0.03-100 μM in the D2S assay and 0.01-100 μM in the D2L assays. The IC50 was defined as the concentration causing a half-maximum inhibition of control specific binding.

[2] = tested on: non-selective α1 adrenergic receptor; assay: α1 adrenergic receptor radioligand binding ([3H]prazosin); conditions: 10 μM; rat cerebral cortex; 0.25 nM [3H]prazosin
Procedure: as §1
α1 Adrenergic Receptor. Binding at 10 μM. The binding assay evaluated the affinity of test article for the non-selective α1 adrenergic receptor in rat cerebral cortex. Membrane homogenates of cerebral cortex were incubated in duplicate for 60 minutes at room temperature with 0.25 nM [^3H]prazosin in the absence or presence of test articles at 10 μM. After the incubation period, samples were filtered through glass fiber filters, the filters dried and then counted for radioactivity using a scintillation counter. Results are expressed as mean percent inhibition of control radioligand binding.
Binding IC50. […] Compound A was tested at 0.01-30 μM. […] Compound 1 and Compound 2, the S-enantiomer of Compound 1, were assayed at 0.03-100 μM. Radioactivity was measured as described above. The IC50 was defined as the concentration causing a half-maximum inhibition of control specific binding.

[3] = tested on: MM cell lines H929-1051, KMS11, KMS-12PE, L363, OPM-P10, RPMI8226; assay: Combination with small molecule inhibitors, synergy (Cell Titer-Glo, 3 days); format: cell-based, human; conditions: Highest Single Agent method, 6 MM cell lines
Procedure: The effect of combining treatment with Compound 2 and small molecule inhibitors with various mechanisms was evaluated in a panel of MM cell lines. Thirteen small molecule inhibitors were selected for combination studies with Compound 2 based on their preclinical and/or activity against MM. The cell lines H929-1051, KMS11, KMS-12PE, L363, OPM-P10, and RPMI8226 were selected for this study to represent the different genetic clustering groups across MM cell lines. […] Combination agents were dosed in a 6 point dose-response curve (DRC) at a 1:3 dilution, Compound 2 was dosed in a 10 point DRC, also at a 1:3 dilution. The combination experiments were run twice, each time with replicate data on separate plates. Compounds were pre-spotted into the appropriate wells of 384-well plates using an acoustic dispenser. All MM cell lines were cultured in an incubator at 37° C. with 5% CO2 using the indicated cell culture media containing 1× Penicillin-Streptomycin. Cells were added to the compound containing 384-well plates using a Multidrop Combi Reagent Dispenser and allowed to incubate for 3 days at 37° C. with 5% CO2. After 3 days, cells were assessed for their level of ATP content via Cell Titer-Glo measured on a luminescence detector (PerkinElmer Envision).
The Highest Single Agent (HAS) method was used to detect synergy in the dose response curve data. Combinations were analyzed from a response surface perspective. A statistical framework (Van Der Borght, K., et al., BIGL: Biochemically Intuitive Generalized Loewe null model for prediction of the expected combined effect compatible with partial agonism and antagonism; Scientific Reports, 7 (1), 17935-1-17935-9 (2017)) was incorporated into the analysis on top of the HAS null model with two statistical tests: 1) Complete response surface differs from null model, 2) Single well differs from null model.

T1 sequence (P14416 1-414 isoform P14416-2): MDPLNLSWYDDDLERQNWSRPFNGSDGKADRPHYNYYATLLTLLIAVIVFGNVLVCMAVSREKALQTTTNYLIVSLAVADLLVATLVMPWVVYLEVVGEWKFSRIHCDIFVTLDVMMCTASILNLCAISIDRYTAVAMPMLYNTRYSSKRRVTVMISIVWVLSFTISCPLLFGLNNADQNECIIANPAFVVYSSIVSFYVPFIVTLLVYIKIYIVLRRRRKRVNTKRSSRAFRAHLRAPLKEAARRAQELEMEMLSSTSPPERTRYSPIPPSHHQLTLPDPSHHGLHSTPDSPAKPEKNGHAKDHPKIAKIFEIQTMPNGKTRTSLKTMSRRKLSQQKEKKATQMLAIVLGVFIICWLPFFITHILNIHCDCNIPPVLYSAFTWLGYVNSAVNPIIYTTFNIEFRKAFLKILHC

Compound | Dopamine D2S % Inhibition (10 μM) [1] [%] | Adrenergic α1 (non-selective) % Inhibition (10 μM) [2] [%] | synergistic activity in combination with Compound 2 (cell lines) [3]
O=C1CCC(N2Cc3c(OCc4ccc(CN5CCN(c6ccccc6)CC5)cc4)cccc3C2=O)C(=O)N1 (racemic) [Ex. 5.229] | 98.7 | – | –
O=C1CCC(N2Cc3c(OCc4ccc(CN5CCN(c6ccc(F)cc6)CC5)cc4)cccc3C2=O)C(=O)N1 (racemic) [Ex. 5.273] | 94.7 | 100.3 | –
O=C1CCC(N2C(=O)c3cccc(OCc4ccc(CN5CCN(c6ccc(F)cc6)CC5)cc4)c3C2=O)C(=O)N1 (racemic) [Ex. 5.289] | 92.4 | – | –
O=C(CCCCCCNC(=O)c1cnc(N(c2ccccc2)c2ccccc2Cl)nc1)NO [ACY241] | – | – | synergistic in L363/OPM2-P10
CO[C@H]1/C=C/C[C@H](C)[C@@H](C)S(=O)(=O)NC(=O)c2ccc3c(c2)N(C[C@@H]2CC[C@H]21)C[C@@]1(CCCc2cc(Cl)ccc21)CO3 [AMG176] | – | – | synergistic activity in three cell lines (KMS11, KMS12-PE, L363)
Cn1cc(-c2cc(S(C)(=O)=O)ccc2OCC2CC2)c2ccccc2c1=O [Compound D, 4-[2-(cyclopropylmethoxy)-5-(methanesulfonyl)phenyl]-2-methylisoquinolin-1(2H)-one] | – | – | synergistic activity in the MM cells
COc1ccc(-c2c(-c3ccc(C#N)c(F)c3)nc(N3CCC(N)CC3)n(C)c2=O)cc1F [Compound E, 4-[2-(4-amino-piperidin-1-yl)-5-(3-fluoro-4-methoxy-phenyl)-1-methyl-6-oxo-1,6-dihydropyrimidin-4-yl]-2-fluoro-benzonitrile] | – | – | synergistic in L363 and KMS12-PE cells
Cc1sc2c(c1C)C(c1ccc(Cl)cc1)=N[C@@H](CC(=O)Nc1ccc(O)cc1)c1nnc(C)n1-2 [birabresib] | – | – | synergistic activity in the MM cells
MIK665 | – | – | did not show significant synergy in the 6 MM cell lines tested

— patent publication US12029738B2, “Antiproliferative compounds and methods of use thereof” (Celgene Corporation, priority 2017, dated 2024)
